± gives the expanded uncertainty stated by the source.
Experiment: xn = mol fraction of the nth substance listed
Conditions: Liquid; for mass density: 293.15 K, Vibrating tube method; for viscosity: 100 kPa, Concentric cylinders viscometry

SMILES: Cc1ccc(C)c(C)c1 [1,2,4-trimethylbenzene] + CCC(C)O
- mass density (60000 kPa, x2 = 0.3011): 892.5 ± 0.8 kg/m3
- mass density (60000 kPa, x2 = 0.4002): 886.9 ± 0.8 kg/m3
- mass density (60000 kPa, x2 = 0.5001): 880.9 ± 0.8 kg/m3
- mass density (60000 kPa, x2 = 0.5997): 874.4 ± 0.8 kg/m3
- mass density (60000 kPa, x2 = 0.6999): 867.7 ± 0.8 kg/m3
- mass density (60000 kPa, x2 = 0.7999): 860.4 ± 0.8 kg/m3
- mass density (60000 kPa, x2 = 0.9): 852.5 ± 0.8 kg/m3
- mass density (70000 kPa, x2 = 0): 912.6 ± 0.8 kg/m3
- mass density (70000 kPa, x2 = 0.1): 908.3 ± 0.8 kg/m3
- mass density (70000 kPa, x2 = 0.1989): 903 ± 0.8 kg/m3
- mass density (70000 kPa, x2 = 0.3011): 897.3 ± 0.8 kg/m3
- mass density (70000 kPa, x2 = 0.4002): 891.8 ± 0.8 kg/m3
- mass density (70000 kPa, x2 = 0.5001): 885.8 ± 0.8 kg/m3
- mass density (70000 kPa, x2 = 0.5997): 879.4 ± 0.8 kg/m3
- mass density (70000 kPa, x2 = 0.6999): 872.7 ± 0.8 kg/m3
- mass density (70000 kPa, x2 = 0.7999): 865.5 ± 0.8 kg/m3
- mass density (70000 kPa, x2 = 0.9): 857.5 ± 0.8 kg/m3
- mass density (80000 kPa, x2 = 0): 916.9 ± 0.8 kg/m3
- mass density (80000 kPa, x2 = 0.1): 912.9 ± 0.8 kg/m3
- mass density (80000 kPa, x2 = 0.1989): 907.6 ± 0.8 kg/m3
- mass density (80000 kPa, x2 = 0.3011): 902 ± 0.8 kg/m3
- mass density (80000 kPa, x2 = 0.4002): 896.4 ± 0.8 kg/m3
- mass density (80000 kPa, x2 = 0.5001): 890.4 ± 0.8 kg/m3
- mass density (80000 kPa, x2 = 0.5997): 884 ± 0.8 kg/m3
- mass density (80000 kPa, x2 = 0.6999): 877.3 ± 0.8 kg/m3
- mass density (80000 kPa, x2 = 0.7999): 870.1 ± 0.8 kg/m3
- mass density (80000 kPa, x2 = 0.9): 862.3 ± 0.9 kg/m3
- mass density (90000 kPa, x2 = 0): 921.1 ± 0.8 kg/m3
- mass density (90000 kPa, x2 = 0.1): 917.2 ± 0.8 kg/m3
- mass density (90000 kPa, x2 = 0.1989): 912 ± 0.8 kg/m3
- mass density (90000 kPa, x2 = 0.3011): 906.4 ± 0.8 kg/m3
- mass density (90000 kPa, x2 = 0.4002): 900.9 ± 0.8 kg/m3
- mass density (90000 kPa, x2 = 0.5001): 894.9 ± 0.8 kg/m3
- mass density (90000 kPa, x2 = 0.5997): 888.6 ± 0.8 kg/m3
- mass density (90000 kPa, x2 = 0.6999): 881.9 ± 0.8 kg/m3
- mass density (90000 kPa, x2 = 0.7999): 874.8 ± 0.9 kg/m3
- mass density (90000 kPa, x2 = 0.9): 866.8 ± 0.9 kg/m3
- mass density (100000 kPa, x2 = 0): 925.1 ± 0.8 kg/m3
- mass density (100000 kPa, x2 = 0.1): 921.4 ± 0.8 kg/m3
- mass density (100000 kPa, x2 = 0.1989): 916.2 ± 0.8 kg/m3
- mass density (100000 kPa, x2 = 0.3011): 910.6 ± 0.8 kg/m3
- mass density (100000 kPa, x2 = 0.4002): 905.1 ± 0.8 kg/m3
- mass density (100000 kPa, x2 = 0.5001): 899.2 ± 0.8 kg/m3
- mass density (100000 kPa, x2 = 0.5997): 892.9 ± 0.8 kg/m3
- mass density (100000 kPa, x2 = 0.6999): 886.2 ± 0.9 kg/m3
- mass density (100000 kPa, x2 = 0.7999): 879 ± 0.9 kg/m3
- mass density (100000 kPa, x2 = 0.9): 871.2 ± 0.9 kg/m3
- mass density (110000 kPa, x2 = 0): 929 ± 0.8 kg/m3
- mass density (110000 kPa, x2 = 0.1): 925.4 ± 0.8 kg/m3
- mass density (110000 kPa, x2 = 0.1989): 920.3 ± 0.8 kg/m3
- mass density (110000 kPa, x2 = 0.3011): 914.8 ± 0.8 kg/m3
- mass density (110000 kPa, x2 = 0.4002): 909.2 ± 0.8 kg/m3
- mass density (110000 kPa, x2 = 0.5001): 903.4 ± 0.8 kg/m3
- mass density (110000 kPa, x2 = 0.5997): 897.1 ± 0.9 kg/m3
- mass density (110000 kPa, x2 = 0.6999): 890.4 ± 0.9 kg/m3
- mass density (110000 kPa, x2 = 0.7999): 883.3 ± 0.9 kg/m3
- mass density (110000 kPa, x2 = 0.9): 875.4 ± 0.9 kg/m3
- mass density (120000 kPa, x2 = 0): 932.8 ± 0.8 kg/m3
- mass density (120000 kPa, x2 = 0.1): 929.3 ± 0.8 kg/m3
- mass density (120000 kPa, x2 = 0.1989): 924.2 ± 0.8 kg/m3
- mass density (120000 kPa, x2 = 0.3011): 918.7 ± 0.8 kg/m3
- mass density (120000 kPa, x2 = 0.4002): 913.2 ± 0.8 kg/m3
- mass density (120000 kPa, x2 = 0.5001): 907.4 ± 0.8 kg/m3
- mass density (120000 kPa, x2 = 0.5997): 901.2 ± 0.9 kg/m3
- mass density (120000 kPa, x2 = 0.6999): 894.4 ± 0.9 kg/m3
- mass density (120000 kPa, x2 = 0.7999): 887.3 ± 0.9 kg/m3
- mass density (120000 kPa, x2 = 0.9): 879.5 ± 0.9 kg/m3
- mass density (130000 kPa, x2 = 0): 936.4 ± 0.8 kg/m3
- mass density (130000 kPa, x2 = 0.1): 933.1 ± 0.8 kg/m3
- mass density (130000 kPa, x2 = 0.1989): 928 ± 0.8 kg/m3
- mass density (130000 kPa, x2 = 0.3011): 922.6 ± 0.8 kg/m3
- mass density (130000 kPa, x2 = 0.4002): 917.1 ± 0.8 kg/m3
- mass density (130000 kPa, x2 = 0.5001): 911.3 ± 0.9 kg/m3
- mass density (130000 kPa, x2 = 0.5997): 905.1 ± 0.9 kg/m3
- mass density (130000 kPa, x2 = 0.6999): 898.4 ± 0.9 kg/m3
- mass density (130000 kPa, x2 = 0.7999): 891.2 ± 0.9 kg/m3
- mass density (130000 kPa, x2 = 0.9): 883.4 ± 0.9 kg/m3
- mass density (140000 kPa, x2 = 0): 939.9 ± 0.8 kg/m3
- mass density (140000 kPa, x2 = 0.1): 936.7 ± 0.8 kg/m3
- mass density (140000 kPa, x2 = 0.1989): 931.6 ± 0.8 kg/m3
- mass density (140000 kPa, x2 = 0.3011): 926 ± 0.8 kg/m3
- mass density (140000 kPa, x2 = 0.4002): 920.5 ± 0.8 kg/m3
- mass density (140000 kPa, x2 = 0.5001): 914.9 ± 0.9 kg/m3
- mass density (140000 kPa, x2 = 0.5997): 908.7 ± 0.9 kg/m3
- mass density (140000 kPa, x2 = 0.6999): 901.9 ± 0.9 kg/m3
- mass density (140000 kPa, x2 = 0.7999): 894.7 ± 0.9 kg/m3
- mass density (140000 kPa, x2 = 0.9): 887 ± 1 kg/m3
- viscosity (303.15 K, x2 = 0): 0.779 ± 0.017 mPa·s
- viscosity (303.15 K, x2 = 0.1001): 0.774 ± 0.017 mPa·s
- viscosity (303.15 K, x2 = 0.2261): 0.786 ± 0.017 mPa·s
- viscosity (303.15 K, x2 = 0.3): 0.802 ± 0.017 mPa·s
- viscosity (303.15 K, x2 = 0.3966): 0.858 ± 0.018 mPa·s
- viscosity (303.15 K, x2 = 0.5298): 0.923 ± 0.02 mPa·s
- viscosity (303.15 K, x2 = 0.6001): 1.01 ± 0.021 mPa·s
- viscosity (303.15 K, x2 = 0.7001): 1.16 ± 0.024 mPa·s
- viscosity (303.15 K, x2 = 0.7997): 1.4 ± 0.029 mPa·s
- viscosity (303.15 K, x2 = 0.9001): 1.8 ± 0.037 mPa·s
- viscosity (313.15 K, x2 = 0): 0.692 ± 0.015 mPa·s
- viscosity (313.15 K, x2 = 0.1001): 0.687 ± 0.015 mPa·s
- viscosity (313.15 K, x2 = 0.2261): 0.689 ± 0.015 mPa·s
- viscosity (313.15 K, x2 = 0.3): 0.698 ± 0.015 mPa·s
- viscosity (313.15 K, x2 = 0.3966): 0.74 ± 0.016 mPa·s
